Key:
apple variety “Fuji” = test: Coloring test of apple; assay type: in vivo; conditions: for Coloring of red compared with 5-aminolevulinic acid hydrochloride: in vivo
Procedure: The 5-aminolevulinic acid phosphate obtained in Example 1 was dissolved in ion exchange water to the predetermined concentration shown in the following table. A spreader (“Approach BI” manufactured by Maruwa Biochemical) was added to the liquid to a concentration of 0.1% by weight. The pH was adjusted using phosphoric acid.
An aqueous 5-aminolevulinic acid hydrochloride solution was prepared in the same manner, except that the above-described 5-aminolevulinic acid phosphate was changed to 5-aminolevulinic acid hydrochloride and the phosphoric acid for pH adjustment was changed to hydrochloric acid.
The thus prepared liquid was sprayed at a ratio of 2 liters per branch on three main branches where young fruits of an apple variety “Fuji” bored but not yet colored into red (September 15). About 2 months thereafter (November 6), the apples were harvested and their coloring degree was examined. A color meter CR-200 manufactured by MINOLTA CAMERA was used for the measurement of color.
The 5-aminolevulinic acid nitrate obtained in Example 16 was dissolved in ion exchange water to the predetermined concentration shown in Table 16. A spreader (“Approach BI” manufactured by Maruwa Biochemical) was added to the liquid to a concentration of 0.1% by weight. The pH was adjusted using nitric acid.
A solution was prepared in the same manner, except that the above-described 5-aminolevulinic acid nitrate was changed to 5-aminolevulinic acid hydrochloride and the nitric acid was changed to hydrochloric acid.
The 5-aminolevulinic acid p-toluenesulfonate obtained in Example 23 was dissolved in ion exchange water to the predetermined concentration shown in Table 24. A spreader (“Approach B1” manufactured by Maruwa Biochemical) was added to the liquid to a concentration of 0.1% by weight. The pH was adjusted using p-toluenesulfonic acid.
A solution was prepared in the same manner, except that the above-described 5-aminolevulinic acid p-toluenesulfonate was changed to 5-aminolevulinic acid hydrochloride and the p-toluenesulfonic acid was changed to hydrochloric acid.

radish = test: Plant activating effect, foliar application, radish; assay type: in vivo; conditions: 21 days, 12 seeds
Procedure: After 600 g of upland soil was packed in a porcelain pot of 12 cm in inner diameter, 12 grains of radish seeds were sowed therein, covered with 5 mm in depth of the soil and allowed to grow in a green house. Foliar application treatment was carried out once a day using the following application liquids. Conditions of the leaves 21 days thereafter were observed.

[1] = Test on the generation of silver chloride precipitation with silver nitrate; assay type: physicochemical; conditions: 0.5 g with 0.5 g of silver nitrate in 10 ml of ion exchange water, 5 minutes
Procedure: In 10 ml of ion exchange water, 0.5 g of 5-aminolevulinic acid phosphate and 0.5 g of silver nitrate were dissolved, the mixture was allowed to stand still for 5 minutes, and conditions of the liquid was observed. […] In this connection, 0.5 g of 5-aminolevulinic acid hydrochloride and 0.5 g of silver nitrate were dissolved in 10 ml of ion exchange water and allowed to stand still for 5 minutes, and conditions of the liquid was observed.
In 10 ml of ion exchange water, 0.5 g of 5-aminolevulinic acid nitrate and 0.5 g of silver nitrate were dissolved, the mixture was allowed to stand still for 5 minutes, and conditions of the liquid was observed.
In this connection, 0.5 g of 5-aminolevulinic acid hydrochloride and 0.5 g of silver nitrate were dissolved in 10 ml of ion exchange water and allowed to stand still for 5 minutes, and conditions of the liquid was observed.
In 10 ml of ion exchange water, 0.5 g of 5-aminolevulinic acid p-toluenesulfonate and 0.5 g of silver nitrate were dissolved, the mixture was allowed to stand still for 5 minutes, and conditions of the liquid was observed.

[2] = Degradation test by sterilization; assay type: physicochemical
Procedure: Firstly, 50 mg of 5-aminolevulinic acid p-toluenesulfonate or 5-aminolevulinic acid hydrochloride was heat sterilized (121° C., 20 minutes, 1.5 kgf/cm^2). After confirming that there is no change in weight before and after the sterilization, degree of degradation of 5-aminolevulinic acid before and after the sterilization was verified by the method described in a reference (Clin. Chem., 36/8, 1494 (1990)).

[3] = Chloride ion concentration of aqueous solutions by ion chromatography; assay type: physicochemical; conditions: detection limit 0.1 ppm; each sample
Procedure: When chloride ion concentration in the aqueous 5-aminolevulinic acid phosphate solutions used in the above-described examples was measured by ion chromatography under the following conditions, it was equal to or lower than the detection limit (0.1 ppm) in each sample.
The measuring conditions are as follows; A: separation column (IonPac AS12A manufactured by Japan Dionex), B: guard column (IonPac AG12A manufactured by Japan Dionex), C: eluting solution (an aqueous solution containing Na2CO3: 3.0 mmol/l and NaHCO3: 0.5 mmol/l), D: flow rate (1.5 ml/min), E: suppressor (ASRS (recycle mode, current value 50 mA)), F: amount of introduced sample (25 μl), G: temperature of constant temperature oven (35° C.) and H: detector (electric conductivity detector).
When chloride ion concentration in the aqueous 5-aminolevulinic acid nitrate solutions used in the above-described examples was measured by ion chromatography under the following conditions, it was equal to or lower than the detection limit (0.1 ppm) in each sample.
The measuring conditions are as follows: A: separation column (IonPac AS12A manufactured by Japan Dionex), B: guard column (IonPac AG12A manufactured by Japan Dionex), C: eluting solution (an aqueous solution consisting of Na2CO3: 3.0 mmol/l and NaHCO3: 0.5 mmol/l), D: flow rate (1.5 ml/min), E: suppressor (ASRS (recycle mode, current value 50 mA)), F: amount of introduced sample (25 μl), G: temperature of constant temperature oven (35° C.) and H: detector (electric conductivity detector).
When chloride ion concentration in the aqueous 5-aminolevulinic acid p-toluenesulfonate solutions used in the above-described examples was measured by ion chromatography under the following conditions, it was equal to or lower than the detection limit (0.1 ppm) in each sample.

Chlorella sp. = test: Culturing of plankton; assay type: cell-based; conditions: for amount of cells: OD 660 nm: 1 mM additive
Procedure: 5-Aminolevulinic acid nitrate was added, to a concentration of 1 mM (194 ppm), to 100 ml of a sterilized culture shown in Table 17 (components of the culture), and a Chlorella sp. was inoculated therein and cultured on a reciprocal shaker at 30° C. under aerobic and dark conditions to measure the amount of cells (OD 660).
5-Aminolevulinic acid hydrochloride was added, to a concentration of 1 mM (168 ppm), to 100 ml of the sterilized culture shown in Table 17 (components of the culture), and the Chlorella sp. was inoculated therein and cultured on a reciprocal shaker at 30° C. under aerobic and dark conditions to measure the amount of cells (OD 660).
The Chlorella sp. was inoculated into 100 ml of the sterilized culture shown in Table 17 (components of the culture) and cultured on a reciprocal shaker at 30° C. under aerobic and dark conditions to measure the amount of cells (OD 660).

## Cc1ccc(S(=O)(=O)O)cc1.NCC(=O)CCC(=O)O [5-aminolevulinic acid p-toluenesulfonate, 5-aminolevulinic Acid p-toluenesulfonate]
Apple variety “Fuji”; 100 ppm (pH 5.0)
  Coloring, L: 42.39
  Coloring, a: 26.44
  Coloring, b: 14.69
Apple variety “Fuji”; 200 ppm (pH 4.9)
  Coloring, L: 42.36
  Coloring, a: 30.93
  Coloring, b: 14.34
Apple variety “Fuji”
  Coloring of red compared with 5-aminolevulinic acid hydrochloride: Coloring of red was denser
radish; 1 ppm in tap water
  plants judged 0: Abnormality was not found on the leaf surface: 6 plants
  plants judged 1: A region discolored to yellow was found on the leaf surface: 3 plants
  plants judged 2: A necrotic region was found on the leaf surface: 3 plants
radish; 10 ppm in tap water
  plants judged 0: Abnormality was not found on the leaf surface: 5 plants
  plants judged 1: A region discolored to yellow was found on the leaf surface: 5 plants
  plants judged 2: A necrotic region was found on the leaf surface: 2 plants
radish; 100 ppm in tap water
  plants judged 0: Abnormality was not found on the leaf surface: 7 plants
  plants judged 1: A region discolored to yellow was found on the leaf surface: 4 plants
  plants judged 2: A necrotic region was found on the leaf surface: 1 plant^ plants
[1]
  generation of precipitate: Generation of the precipitate was not found
[2]
  degradability by high temperature heat sterilization compared with hydrochloride: lower degradability
[2]; 50 mg heat sterilized, 121° C., 20 minutes, 1.5 kgf/cm^2
  Degradation degree (%): 2.7%
[3]
  chloride ion concentration in the aqueous solutions used in the examples: ≤ 0.1 ppm

## NCC(=O)CCC(=O)O.O=[N+]([O-])O [5-aminolevulinic acid nitrate, 5-aminolevulinic Acid Nitrate]
Apple variety “Fuji”; 100 ppm (pH 5.0)
  Coloring, L: 42.41
  Coloring, a: 26.51
  Coloring, b: 14.46
Apple variety “Fuji”; 200 ppm (pH 4.9)
  Coloring, L: 42.47
  Coloring, a: 31.00
  Coloring, b: 14.72
Apple variety “Fuji”
  Coloring of red compared with 5-aminolevulinic acid hydrochloride: Coloring of red was denser
radish; 1 ppm in tap water
  plants judged 0: Abnormality was not found on the leaf surface: 5 plants
  plants judged 1: A region discolored to yellow was found on the leaf surface: 5 plants
  plants judged 2: A necrotic region was found on the leaf surface: 2 plants
radish; 10 ppm in tap water
  plants judged 0: Abnormality was not found on the leaf surface: 6 plants
  plants judged 1: A region discolored to yellow was found on the leaf surface: 5 plants
  plants judged 2: A necrotic region was found on the leaf surface: 1 plant^ plants
radish; 100 ppm in tap water
  plants judged 0: Abnormality was not found on the leaf surface: 4 plants
  plants judged 1: A region discolored to yellow was found on the leaf surface: 6 plants
  plants judged 2: A necrotic region was found on the leaf surface: 2 plants
Chlorella sp.
  effect on Chlorella culture compared with hydrochloride: showed the same effect of 5-aminolevulinic acid hydrochloride
Chlorella sp.; Culture time 0 day
  amount of cells: OD 660 nm: 1.8
Chlorella sp.; Culture time 1 day
  amount of cells: OD 660 nm: 6.5
Chlorella sp.; Culture time 2 day
  amount of cells: OD 660 nm: 12.6
Chlorella sp.; Culture time 3 day
  amount of cells: OD 660 nm: 15.0
[1]
  generation of precipitate: Generation of the precipitate was not found
[3]
  chloride ion concentration in the aqueous solutions used in the examples: ≤ 0.1 ppm
